We go through ten compounds from patent US7928129B1, “Nanomolar β-lactamase inhibitors” (Northwestern University, priority 2002, dated 2011).

Read-outs that look alike come from different tables or passages of the source.

Data set [1] has as its target T1, AmpC N289A (Escherichia coli, UniProt P00811, N305A).
T1 construct: made in house
The data set can be described thus: biochemical. Format: biochemical. As to the method:
(§1) Enzyme mutagenesis and preparation. Mutants of AmpC were created using the overlap extension polymerase chain reaction (23). Mutant enzymes were expressed as described. AmpC N289A and L293A were purified on an m-aminophenylboronic acid affinity column. AmpC L119A was purified on an S-Sepharose ion-exchange column. The purified enzymes were concentrated using Centricon spin concentrators.
(§2) Mutant Enzymology. The glycylboronic acids were dissolved in DMSO at a concentration of 50 mM; more dilute stocks were subsequently prepared as necessary. Kinetic measurements were performed using nitrocefin as a substrate in 50 mM Tris buffer, pH 7.0, and monitored at 480 nm in an HP9453 UV-vis spectrophotometer. To prevent overestimation of inhibition due to sequestration of the enzyme on the walls of the cuvette during the reaction, 0.1% BSA was added to the buffer in all reactions. […] To determine Ki values, inhibitor and enzyme were incubated together in the cuvettes for 5 min before reaction was initiated by the addition of substrate. 200 μM nitrocefin was used for the reactions with L119A and L293A, whereas 400 μM nitrocefin was used for the reactions with N289A to shorten the lag phase of the reaction. For the reactions with N289A, rates were calculated from the later portions of the curve, once the reactions had achieved steady state. These rates were compared with portions of the uninhibited curves that corresponded to the same range of substrate concentrations.

Data set [2] has as its target T2, AmpC β-lactamase (Escherichia coli, UniProt P00811).
T2 construct: made in house
Nature of the data set: biochemical. The note with it: for fold more potent than the lead compound lacking the m.carboxyphenyl side chain: 15 versus 1, 16 versus 4. The protocol: Enzymology. The phenylglycylboronic acids of the preceding examples were dissolved in DMSO at a concentration of 50 mM; more dilute stocks (10 mM to 1 μM) were subsequently prepared as necessary. Kinetic measurements were performed using nitrocefin as substrate in 50 mM Tris buffer, pH 7.0 and monitored in an HP8453 UV/Vis spectrophotometer. The concentration of AmpC was determined spectrophotometrically in stock solutions made from lyophilized powder; this enzyme had been previously expressed and purified. Usher, K. C., Blaszczak, L. C., Weston, G. S., Shoichet, B. K. and Remington, S. J. Biochemistry 1998, 37, 16082-16092. […] To determine K, values, inhibitor and enzyme were incubated together at their final concentration in the cuvettes for five minutes before the reaction was initiated by the addition of 200 μM substrate. […] Waley, S. G. Biochem. J. 1982, 205 631-633. […] In all reactions, rates were measured after reactions had overcome their initial lag phase and had reached a steady state.
as §2

Data set [3] concerns the target T3, AmpC L293A (Escherichia coli, UniProt P00811, L309A).
T3 construct: made in house
Nature of the data set: biochemical. It counts as biochemical. The protocol: as §1, §2

The target of data set [4] is T4, AmpC L119A (Escherichia coli, UniProt P00811, L135A).
T4 construct: made in house
T4 sequence (P00811 20-377 L135A): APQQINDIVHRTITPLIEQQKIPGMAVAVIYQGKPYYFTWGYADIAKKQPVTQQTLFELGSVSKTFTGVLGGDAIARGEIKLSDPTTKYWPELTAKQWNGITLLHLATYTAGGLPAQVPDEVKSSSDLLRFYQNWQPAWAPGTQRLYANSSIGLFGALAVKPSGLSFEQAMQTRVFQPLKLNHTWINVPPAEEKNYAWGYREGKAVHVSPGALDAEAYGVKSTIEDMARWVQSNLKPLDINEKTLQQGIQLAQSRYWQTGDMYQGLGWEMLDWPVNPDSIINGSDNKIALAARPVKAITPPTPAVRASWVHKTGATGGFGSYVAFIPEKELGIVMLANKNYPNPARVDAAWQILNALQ
Nature of the data set: biochemical. It counts as biochemical. The protocol: as §1, §2

For data set [5], the system named is Escherichia coli 72929 Hip. Nature of the data set: MIC, synergy with ceftazidime, microdilution. It counts as cell-based. The note with it: E. coli 1, ceftazidime to inhibitor 1:1 in combinations. The protocol: (§3) Microbiology. Compounds 16 and 21 were tested for synergy with the β-lactam ceftazidime against pathogenic bacteria from clinical isolates at the Hospital Ramón y Cajal; these bacteria were resistant to β-lactams due to expression of a class C β-lactamase. Strains of bacteria tested were: Citrobacter freundii mut756-CAZ, Escherichia coli 72929 Hip, E. coli 4774 Hip (Table 4, E. coli 1 and 2, respectively), Enterobacter cloacae 72527 ED, E. cloacae 8411 CAZ-R clon7, E. cloacae 12991 ED (Table 4, E. cloacae 1, 2, and 3, respectively), Pseudomonas aeruginosa 279/88, and P. aeruginosa JMSMA7 (Table 4, P. aeruginosa 1 and 2, respectively). Minimum inhibitor concentration (MIC) values were determined with Mueller-Hinton Broth II using the microdilution method according to NCCLS guidelines. National Committee for Clinical Laboratory Standards, Methods for dilution antimicrobial susceptibility test for bacteria that grow aerobically. Approved Standard M7-A4, 1997, vol. 17, National Committee for Clinical Laboratory Standards, Villanova, Pa.
For orientation: Broth dilution looks for growth in wells or tubes with falling amounts of substance.

Data set [6] concerns P. aeruginosa JMSMA7. The data set can be described thus: MIC, synergy with ceftazidime, microdilution. Format: cell-based. The note with it: Pseudomonas aeruginosa, P. aeruginosa 2, ceftazidime to inhibitor 1:1 in combinations. As to the method: as §3
For data set [7], the target named is β-trypsin (bovine pancreatic) (Bos taurus, UniProt P00760). Nature of the data set: Selectivity: serine protease β-trypsin. It counts as biochemical. The note with it: 50 mM Tris pH 7.0, 25° C. The text has this:
Selectivity. […] The reaction was monitored at 410 nm. […] The reaction was monitored at 253 nm. […] The reaction was monitored at 385 nm.

The target of data set [8] is α-chymotrypsin (bovine pancreatic) (Bos taurus, UniProt P00766). Nature of the data set: biochemical. The note with it: for selectivity for AmpC over α-chymotrypsin: ratio of IC50 values. The protocol: (§4) Selectivity. The selectivity of compounds 16 and 21 was tested by determining their activity against the serine proteases α-chymotrypsin (bovine pancreatic), β-trypsin (bovine pancreatic), and elastase (porcine pancreatic), all from Sigma (St. Louis, Mo.). The substrates for α-chymotrypsin (succinyl-ala-ala-pro-phe-p-nitroanilide) and β-trypsin (N-benzoyl-L-arginine ethyl ester) were also purchased from Sigma. The elastase substrate (MeOSuc-Ala-Ala-Pro-Val-pNA) was purchased from Calbiochem (San Diego, Calif.). Substrates were diluted from 20 mM DMSO stock solutions, and all reactions were performed in 50 mM Tris buffer, pH 7.0, 25° C. For α-chymotrypsin, 0.001 mg/ml of enzyme and the inhibitor at its final concentration were incubated in the cuvette for five minutes before the reaction was initiated by the addition of 200 μM of substrate. The reaction was monitored at 410 nm. For β-trypsin, 0.004 mg/ml of enzyme and the inhibitor at its final concentration were incubated in the cuvette for five minutes before the reaction was initiated by the addition of 200 μM of substrate. The reaction was monitored at 253 nm. For elastase, 0.006 mg/ml of enzyme and the inhibitor at its final concentration were incubated in the cuvette for five minutes before the reaction was initiated by the addition of 640 μM of substrate. The reaction was monitored at 385 nm. Initial rate fits to the absorbance data for the first 100 seconds were used to determine reaction velocities.

The target in data set [9] is elastase (porcine pancreatic) (Sus scrofa, UniProt P00772). The data set can be described thus: biochemical. The note with it: for selectivity for AmpC over elastase: ratio of IC50 values. As to the method: as §4
Sequence of elastase (porcine pancreatic) (P00772 27-266): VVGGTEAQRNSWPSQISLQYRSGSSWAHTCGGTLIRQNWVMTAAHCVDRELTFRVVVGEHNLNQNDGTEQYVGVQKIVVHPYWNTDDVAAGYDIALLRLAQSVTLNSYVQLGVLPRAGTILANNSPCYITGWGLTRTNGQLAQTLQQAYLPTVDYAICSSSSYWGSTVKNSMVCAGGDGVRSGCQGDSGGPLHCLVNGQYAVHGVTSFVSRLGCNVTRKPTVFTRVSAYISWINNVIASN
Data set [10] has as its system eight clinically isolated bacterial pathogens producing class C β-lactamases. Format: cell-based. The note with it: against all strains. The protocol:
Microbiology. Compounds 16 and 21 were tested for synergy with the β-lactam ceftazidime against pathogenic bacteria from clinical isolates at the Hospital Ramón y Cajal; these bacteria were resistant to β-lactams due to expression of a class C β-lactamase. […] Minimum inhibitor concentration (MIC) values were determined with Mueller-Hinton Broth II using the microdilution method according to NCCLS guidelines. National Committee for Clinical Laboratory Standards, Methods for dilution antimicrobial susceptibility test for bacteria that grow aerobically. Approved Standard M7-A4, 1997, vol. 17, National Committee for Clinical Laboratory Standards, Villanova, Pa.

In data set [11] the target is T2, AmpC β-lactamase. The note with it: glycylboronic acid previously found, no buffer footnote; cited from earlier work.
Where [12] appears, read: differential free energy of binding relative to compound 1, 298 K, positive = improved affinity.

T2 sequence (P00811 20-377): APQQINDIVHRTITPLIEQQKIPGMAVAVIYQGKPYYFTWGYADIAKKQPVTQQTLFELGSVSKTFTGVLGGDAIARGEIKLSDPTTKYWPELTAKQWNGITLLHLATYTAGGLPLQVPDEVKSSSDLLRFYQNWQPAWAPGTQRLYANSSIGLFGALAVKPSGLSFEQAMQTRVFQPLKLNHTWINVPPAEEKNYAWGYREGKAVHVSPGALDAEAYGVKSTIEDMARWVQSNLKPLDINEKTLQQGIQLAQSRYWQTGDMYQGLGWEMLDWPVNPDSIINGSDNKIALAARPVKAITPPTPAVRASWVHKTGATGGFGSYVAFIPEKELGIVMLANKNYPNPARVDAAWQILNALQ
T1 sequence (P00811 20-377 N305A): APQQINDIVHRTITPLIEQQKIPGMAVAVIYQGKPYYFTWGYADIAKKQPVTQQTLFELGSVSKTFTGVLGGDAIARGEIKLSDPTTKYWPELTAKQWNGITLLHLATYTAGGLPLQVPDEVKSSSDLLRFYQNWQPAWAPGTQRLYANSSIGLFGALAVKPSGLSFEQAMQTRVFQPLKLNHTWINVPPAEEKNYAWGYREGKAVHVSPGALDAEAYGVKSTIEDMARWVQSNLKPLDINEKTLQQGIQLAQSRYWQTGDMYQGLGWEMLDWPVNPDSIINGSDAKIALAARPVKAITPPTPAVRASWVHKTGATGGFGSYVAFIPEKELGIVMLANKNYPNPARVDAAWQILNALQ
T3 sequence (P00811 20-377 L309A): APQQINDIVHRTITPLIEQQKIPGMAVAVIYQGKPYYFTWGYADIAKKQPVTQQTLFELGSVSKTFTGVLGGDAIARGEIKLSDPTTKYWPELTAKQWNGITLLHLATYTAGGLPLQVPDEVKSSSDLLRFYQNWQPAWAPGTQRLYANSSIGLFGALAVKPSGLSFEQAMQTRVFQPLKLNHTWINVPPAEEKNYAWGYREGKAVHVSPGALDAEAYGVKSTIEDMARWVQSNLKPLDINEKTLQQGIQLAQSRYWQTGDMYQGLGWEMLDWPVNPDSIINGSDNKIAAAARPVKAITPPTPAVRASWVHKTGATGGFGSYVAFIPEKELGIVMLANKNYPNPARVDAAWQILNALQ
Sequence of β-trypsin (bovine pancreatic) (P00760 24-246): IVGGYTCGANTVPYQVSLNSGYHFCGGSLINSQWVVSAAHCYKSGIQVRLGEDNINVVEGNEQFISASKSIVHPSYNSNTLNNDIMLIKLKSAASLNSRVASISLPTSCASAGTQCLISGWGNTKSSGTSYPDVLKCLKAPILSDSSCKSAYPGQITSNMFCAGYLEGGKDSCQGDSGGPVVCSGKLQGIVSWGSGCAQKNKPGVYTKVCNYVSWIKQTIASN

In general, Ki refers to the dissociation constant of the complex between target and ligand, obtained from inhibition or displacement. Take `CC1(C)C2CC3OB([C@@H](NC(=O)Cc4cccs4)c4cccc(C=O)c4)O[C@@]3(C)C1C2` (single isomer, unassigned; (+)) [Compound 26]: the Ki stood at 0.018 µM in data set [1] and 0.015 µM in data set [2].
As usually defined, the melting point is the temperature of the solid-liquid transition. In the case of `Cc1onc(-c2ccccc2Cl)c1C(=O)N[C@H](B(O)O)c1cccc(C(=O)O)c1` [Compound 17, (1R)-1-{[3-(2-Chlorophenyl)-5-methyl-isoxazole-4-carbonyl]-amino}-1-(3-carboxyphenyl)methylboronic acid], the melting point was 180 to 190 °C. In addition, in [2], the affinity corresponds to a Ki of 5.7 µM. Moreover, in data set [2] (17 versus 2), the “binding energy made worse by addition of the m.carboxyphenyl group” value was “about 2 kcal/mol” and the “fold less potent (higher Ki) than compound 2 lacking the m.carboxyphenyl group” value turned out to be 40 fold. The “ΔΔG from 1” value in [2] (setting [12]) is listed as 0.70 kcal/mol.
Regarding `CC(=O)N[C@H](B(O)O)c1cccc(C(=O)O)c1` [Compound 15, (1R)-1-acetylamino-1-(3-carboxyphenyl)methylboronic acid], in [2], the inhibitory constant (Ki) is 0.13 µM and the “fold more potent than the lead compound lacking the m.carboxyphenyl side chain” value was found to be 150 fold. The “ΔΔG from 1” value in data set [2] (setting [12]) is 2.95 kcal/mol.
For the compound `O=C(Cc1cccs1)NCB(O)O` [Compound 4, reference compound], the figures for the Ki in [3], in data set [4] and in data set [2] were 6.2 µM, 0.676 µM and 0.186 µM, respectively.
Usually MIC stands for the smallest concentration in the dilution series that meets the test's criterion for growth inhibition. Take `CC(C)(O/N=C(\C(=O)N[C@@H]1C(=O)N2C(C(=O)[O-])=C(C[n+]3ccccc3)CS[C@H]12)c1csc(N)n1)C(=O)O` [CAZ, ceftazidime]: the minimal inhibitory concentration (MIC) was 32 µg/mL in [5] and 64 µg/mL in [6].
A word on the IC50: it is the point on the concentration scale where inhibition reaches its midpoint. A lower IC50 goes with higher potency. On to `O=C(Cc1cccs1)N[C@H](B(O)O)c1cccc(C(=O)O)c1` [Compound 16, (1R)-1-(2-thienylacetylamino)-1-(3-carboxyphenyl)methylboronic acid], for which the half-inhibitory concentration (IC50) in data set [7] is greater than 1000 µM. Moreover, in data set [1], the affinity corresponds to a Ki of 0.017 µM and the “reduction of affinity by the N289A substitution versus the wild-type enzyme” value is listed as 17 fold. In addition, the “ΔΔΔG, hydrogen bond energy between Asn289 and the inhibitor group” value in data set [1] (thermodynamic cycle, WT AmpC / N289A, mutant ligand 21) is reported as 1.7 kcal/mol. Moreover, in data set [2], the half-inhibitory concentration (IC50) was found to be 0.0026 µM, the Ki came out at 0.001 µM, the “type of inhibition of AmpC” value is “time-dependent inhibition” and the “fold more potent than the lead compound lacking the m.carboxyphenyl side chain” value came to 300 fold. In data set [2] (50 mM Tris pH 7.0, 200 μM nitrocefin, 5 min incubation), this compound registered an inhibition constant Ki of 0.001 µM. Moreover, the “ΔΔG from 1” value in data set [2] (setting [12]) came out at 5.82 kcal/mol. Moreover, the “improvement of binding energy by addition of the m.carboxyphenyl side chain” value in data set [2] (versus lead lacking the side chain) came to 3.4 kcal/mol. For the same compound, in [8], the midpoint of inhibition, the IC50, lay at 150 µM and the “selectivity for AmpC over α-chymotrypsin” value is on record as 57,000 fold. Besides, in data set [9], the IC50 was 500 µM and the “selectivity for AmpC over elastase” value is listed as 190,000 fold. Further, the synergy with ceftazidime result in data set [10] is listed as “showed synergy”.
With `O=C(Cc1cccs1)N[C@H](B(O)O)c1ccccc1` [Compound 21, (1R)-1-(2-thienylacetylamino)-1-phenylmethylboronic acid], the melting point lay within 90 to 100 °C. The compound also came in with an IC50 in data set [7] greater than 1000 µM. In addition, in data set [1], the affinity, expressed as Ki, was 0.037 µM. For the same compound, the “fall in affinity relative to the affinity of 16 for the mutant” value in [1] (AmpC N289A) is reported as 2 fold. Further, in [3], the affinity corresponds to a Ki of 0.521 µM. Moreover, the “ΔΔΔG, interaction between the inhibitor phenyl ring and Leu293” value in data set [3] (thermodynamic cycle, WT AmpC / L293A, L=21, L′=4, negative = unfavorable) is -0.5 kcal/mol. For the same compound, the “reduction of affinity by the L293→Ala substitution” value in data set [3] (versus wild-type AmpC) turned out to be 1.6 kcal/mol. In data set [4], this compound displayed a Ki of 0.012 µM. Moreover, the “ΔΔΔG, interaction between the inhibitor phenyl ring and Leu119” value in data set [4] (thermodynamic cycle, WT AmpC / L119A, L=21, L′=4, negative = unfavorable) was -1.4 kcal/mol. In data set [2], this compound registered an IC50 of 0.09 µM and an inhibitory constant (Ki) of 0.035 µM. Moreover, in data set [2] (setting [12]), the “ΔΔG from 1” value is listed as 3.71 kcal/mol. For the same compound, the “fold less active than compound 16” value in data set [2] (wild-type AmpC) is 35 fold. In data set [8], inhibition was half-maximal at 6 µM (IC50) and the “selectivity for AmpC over α-chymotrypsin” value was 60 fold. Moreover, in [9], the IC50 came to 128 µM and the “selectivity for AmpC over elastase” value is listed as 1,400 fold. Further, the synergy with ceftazidime result in data set [10] is listed as “showed synergy”.
In the case of `CC(C)(O/N=C(\C(=O)NCB(O)O)c1csc(N)n1)C(=O)O` [Compound 3, reference compound], in data set [11], the Ki was 0.02 µM. In [2] (setting [12]), the “ΔΔG from 1 (kcal/mol)” value is listed as 4.04 — kcal/mol.
In general, Km refers to the substrate concentration at which the rate is half of its maximum. Consider `O=C(Cc1cccs1)N[C@@H]1C(=O)N2C(C(=O)O)=C(/C=C/c3ccc([N+](=O)[O-])cc3[N+](=O)[O-])CS[C@H]12` [nitrocefin, reference compound], for which the Km in data set [1] (read-out: KM of nitrocefin, N289A) was determined as 27 µM; in data set [3] (read-out: KM of nitrocefin, L293A), 33 µM.
In the case of `CC(=O)NCB(O)O` [Compound 1, reference compound], the “ΔΔG from 1” value in [2] (setting [12]) was 0.00 kcal/mol.
